One test deals with cancer cells. Nature of the test: Antiproliferative activity against cancer cells (cell line not stated). Format: cell-based, human. As to conditions: general statement. The source says:
(§1) We first screened compounds derived from the known pharmacopeia and from a selected natural product collection using two types of assays: (a) measurements of post-translational modifications of proteins; (b) measurements of protein-protein interactions. For the purpose of measuring post-translational modifications of proteins, we used immunofluorescence methods combined with phospho-specific antibodies. For the purpose of quantifying and localizing protein complexes we used fluorescence methods based on protein-fragment complementation assays (PCA). ‘Hits’ from the initial screens were then tested for antiproliferative activity in up to 5 different human tumor cell lines. […] For drugs with antiproliferative activity in PC-3 cells, dose-response curves were generated to determine the EC50 for antiproliferative activity and additional tumor cell lines were tested to determine the breadth of activity. Methods for assay development, validation, screening, and testing of antiproliferative activity are described below.
Cells were maintained in various media as follows: A549, LoVo and PC-3 (Ham's F12K medium with 2 mM L-glutamine and 1.5 g/L sodium bicarbonate), MIA PaCa-2 (Dulbecco's modified Eagle's medium with 4 mM L-glutamine and 4.5 g/L glucose), U87-MG (MEM+Earle's BSS). Medium for each cell line was supplemented with 10% FBS and […] Penecillin/Streptomycin. All cells were grown in incubators set at 37° C., 5% CO2. Thiazolyl Blue Tetrazolium Bromide (MTT) based proliferation assays were performed to assess the anti-proliferative activities of the compounds on these cells. Cells were seeded in 96 well plates at a density of 750 cells/well 24 hours prior to compound treatment. The cells were incubated with varying concentrations of compounds for 120 hours. Compound concentrations range from 0.03 to 100 microM (half log increments) except for alpha-Tomatine (0.001-100 microM, half log increments), Neriifolin (0.0002-100 microM) and Peruvoside (0.01-100 microM). Drug treatment was performed in 5 replicate wells. Background absorbance was established by wells containing medium but no cells. Vehicle (DMSO) only was used as control. MTT (Sigma-Aldrich, St. Louis, Mo.) was added to each well at a final concentration of 0.5 mg/ml. Following a 2 hour incubation at 37° C., medium in the wells was replaced with 0.15 ml DMSO. The plates were agitated for 15 min using a microtiter plate shaker. […] Mean absorbance values were calculated from 5 replicate wells of each drug treatment following subtraction of background absorbance from blank samples and plotted as a percentage of control.

The subject of the next test is cancer pathways. Nature of the test: Screening of cancer pathways in human cells (PCA and phospho-immunofluorescence). It counts as cell-based. Particulars: cancer pathway in which the drug was active; screened at 10 micromolar, HEK293 cells.
Excerpt: as §1
Immunofluorescence was performed on drug-treated cells using antibodies that specifically recognize phosphorylated forms of key signaling proteins. HEK293T cells were seeded in black-walled, poly-lysine coated 96-well plates (Greiner) at a density of 30,000/well. After 24 hours, cells in duplicate wells were treated with drugs. 100 ng/ml hEGF added to the cells during the last 5 min of drug treatment. The cells were rinsed once with PBS and fixed with 4% formaldehyde for 10 min. The cells were subsequently permeabilized with 0.25% Triton X-100 in PBS and incubated with 3% BSA for 30 min to block non-specific antibody binding. Each of the 4 sets of identically treated cells were then incubated with rabbit antibodies against phosphorylated CREB (Ser133), hsp27 (Ser82), pERK (T202/Y204) (Cell Signaling), or BSA in PBS. The cells were rinsed with PBS and incubated with Alexa488 conjugated goat anti-rabbit secondary antibody (Molecular Probes). Cell nuclei were stained with Hoechst33342 (Molecular Probes). Images were acquired using Discovery-1 High Content Imaging System (Molecular Devices). Background fluorescence due to nonspecific binding by the secondary antibody was established with the use of cells that were incubated with BSA/PBS and without primary antibodies. Fluorescence intensities were quantitated using Image J-based image analysis algorithm as described below.
Reporter fragments for PCA were generated by oligonucleotide synthesis (Blue Heron Biotechnology, Bothell, Wash.). First, oligonucleotides coding for polypeptide fragments YFP[1]and YFP[2] […] Next, PCR mutagenesis was used to generate the mutant fragments IFP[1] and IFP[2]. The IFP[1] fragment corresponds to YFP[1]-(F46L, F64L, M153T) and the IFP[2] fragment corresponds to YFP[2]-(V163A, S175G). […] The YFP[1], YFP[2], IFP[1] and IFP[2] fragments were amplified by PCR to incorporate restriction sites and a linker sequence, described below, in configurations that would allow fusion of a gene of interest to either the 5′- or 3′-end of each reporter fragment. The reporter-linker fragment cassettes were subcloned into a mammalian expression vector (pcDNA3.1Z, Invitrogen) that had been modified to incorporate the replication origin (oriP) of the Epstein Barr virus (EBV). […] Additionally, these vectors still retain the SV40 origin, allowing for episomal expression in cell lines expressing the SV40 large T antigen (e.g. HEK293T, Jurkat or COS). […] PCA fusion constructs were prepared for a large number of proteins known to participate in cellular pathways (Table 1 and Table 2). The full coding sequence for each gene of interest was amplified by PCR from a sequence-verified full-length cDNA.

The subject of a further test is MIA PaCa-2 cells. Nature of the test: MTT proliferation assay, pancreatic carcinoma MIA PaCa-2. Format: cell-based. Particulars: Homo sapiens, Tumor Cell: Pancreatic (MIA PaCa-2), concentrations tested in microM.
Excerpt: as §1
(§2) Cells were maintained in various media as follows: A549, LoVo and PC-3 (Ham's F12K medium with 2 mM L-glutamine and 1.5 g/L sodium bicarbonate), MIA PaCa-2 (Dulbecco's modified Eagle's medium with 4 mM L-glutamine and 4.5 g/L glucose), U87-MG (MEM+Earle's BSS). Medium for each cell line was supplemented with 10% FBS and […] Penecillin/Streptomycin. All cells were grown in incubators set at 37° C., 5% CO2. Thiazolyl Blue Tetrazolium Bromide (MTT) based proliferation assays were performed to assess the anti-proliferative activities of the compounds on these cells. Cells were seeded in 96 well plates at a density of 750 cells/well 24 hours prior to compound treatment. The cells were incubated with varying concentrations of compounds for 120 hours. […] Drug treatment was performed in 5 replicate wells. Background absorbance was established by wells containing medium but no cells. Vehicle (DMSO) only was used as control. MTT (Sigma-Aldrich, St. Louis, Mo.) was added to each well at a final concentration of 0.5 mg/ml. Following a 2 hour incubation at 37° C., medium in the wells was replaced with 0.15 ml DMSO. The plates were agitated for 15 min using a microtiter plate shaker.

Another test relates to A549 cells. Nature of the test: MTT proliferation assay, non-small cell lung carcinoma A549. It counts as cell-based, Human. Particulars: Tumor Cell: NSCLC (A549), concentrations tested in microM.
Excerpt: as §1, §2

pIC50: −log10 of the molar value.

As for `Cc1c(N(C)C)c(=O)n(-c2ccccc2)n1C` [4-dimethylaminoantipyrine], the “Antiproliferative activity against cancer cells” value (“Antiproliferative activity” below) in the test with cancer cells was “substantial antiproliferative activity”.

As for `CCCSc1ccc2nc(NC(=O)OC)[nH]c2c1` [Albendazole], the “Pathway Activity” value in the test on cancer pathways is given as “invasion/metastasis”. Besides, the pIC50 in the test on MIA PaCa-2 cells (120 hours) is 6.85; in the test with A549 cells (Homo sapiens, 120 hours), 6.55. Further, the “Antiproliferative activity” value in the test on cancer cells is listed as “substantial antiproliferative activity”.

Take `CC(C)COCC(CN(Cc1ccccc1)c1ccccc1)N1CCCC1` (stereo not shown) [Bepridil]: the “Pathway Activity” value in the test with cancer pathways is “invasion/metastasis”. For the same compound, the pIC50 was 5.80 in the test on MIA PaCa-2 cells (MIA PaCa-2, 120 h) and 5.32 in the test on A549 cells (Homo sapiens, A549, 120 h). Also, the “Antiproliferative activity” value in the test with cancer cells is “substantial antiproliferative activity”.

In the case of `COc1c2ccoc2cc2oc(=O)ccc12` [Bergaptene], in the test with cancer pathways, the “Pathway Activity” value is recorded as “proliferation; invasion/”. Also, the pIC50 in the test with MIA PaCa-2 cells (MIA PaCa-2, 120 h) is 4.23; with A549 cells (Homo sapiens, A549, 120 h), 4.25. Further, the “Antiproliferative activity” value with cancer cells was “substantial antiproliferative activity”.

With `CCN(CC)CCOc1ccc(C(=C(Cl)c2ccccc2)c2ccccc2)cc1` [Clomiphene], in the test on cancer pathways, the “Pathway Activity” value was “proliferation”. Further, the “Antiproliferative activity” value with cancer cells was “substantial antiproliferative activity”.

As to `CNCCCN1c2ccccc2CCc2ccccc21` [Desipramine], in the test with cancer pathways, the “Pathway Activity” value was “proliferation”. For the same compound, the pIC50 is 5.71 in the test with MIA PaCa-2 cells (MIA PaCa-2, 120 h) and 4.93 in the test on A549 cells (Homo sapiens, A549, 120 h). Also, the “Antiproliferative activity” value in the test with cancer cells is reported as “substantial antiproliferative activity”.

For `Oc1ccc(Cl)cc1Cc1cc(Cl)ccc1O` [Dichlorophene], in the test with cancer pathways, the “Pathway Activity” value is “proliferation”. In addition, the pIC50 in the test on MIA PaCa-2 cells (MIA PaCa-2, 120 h) is 4.59; with A549 cells (Homo sapiens, A549, 120 h), 5.01. Moreover, in the test on cancer cells, the “Antiproliferative activity” value is recorded as “substantial antiproliferative activity”.

On to `O=C(CCCN1CC=C(n2c(=O)[nH]c3ccccc32)CC1)c1ccc(F)cc1` [Droperidol], for which the “Pathway Activity” value with cancer pathways was “invasion/metastasis”. Also, the pIC50 in the test with MIA PaCa-2 cells (MIA PaCa-2, 120 h) is 4.86; with A549 cells (Homo sapiens, A549, 120 h), 4.53. Further, in the test with cancer cells, the “Antiproliferative activity” value is listed as “substantial antiproliferative activity”.

On to `Fc1ccc(C(c2ccc(F)cc2)N2CCN(C/C=C/c3ccccc3)CC2)cc1` [Flunarizine], for which the “Pathway Activity” value with cancer pathways is reported as “invasion/metastasis”. Moreover, the “Antiproliferative activity” value in the test on cancer cells was “substantial antiproliferative activity”.

Turning to `COC(=O)Nc1nc2ccc(C(=O)c3ccccc3)cc2[nH]1` [Mebendazole], the “Pathway Activity” value in the test on cancer pathways was “invasion/metastasis”. Moreover, the “Antiproliferative activity” value with cancer cells was “substantial antiproliferative activity”. Besides, the pIC50 in the test with A549 cells (Homo sapiens, A549, 120 h) was 6.74; with A549 cells (120 hours), 6.55.

In the case of `CCN(CCCCOC(=O)c1ccc(OC)c(OC)c1)C(C)Cc1ccc(OC)cc1` (stereo not shown) [Mebeverine], the “Pathway Activity” value in the test with cancer pathways is on record as “invasion/metastasis”. The “Antiproliferative activity” value in the test on cancer cells was “substantial antiproliferative activity”.

In the case of `C=C1c2c(Cl)ccc(O)c2C(=O)C2=C(O)[C@]3(O)C(=O)C(C(N)=O)=C(O)[C@@H](N(C)C)[C@@H]3[C@@H](O)[C@H]12` [Meclocycline], the pIC50 was 4.17 in the test on MIA PaCa-2 cells (MIA PaCa-2, 120 h) and 4.73 in the test on A549 cells (Homo sapiens, A549, 120 h).

Turning to `CN1C[C@H](CNC(=O)OCc2ccccc2)C[C@@H]2c3cccc4c3c(cn4C)C[C@H]21` [Melergoline], in the test with cancer pathways, the “Pathway Activity” value is reported as “invasion/metastasis”. Besides, the pIC50 is 4.68 in the test with MIA PaCa-2 cells (MIA PaCa-2, 120 h) and 5.24 in the test with A549 cells (Homo sapiens, A549, 120 h). Moreover, the “Antiproliferative activity” value in the test on cancer cells was “substantial antiproliferative activity”.

With `CO[C@H]1[C@H](O)[C@H](O[C@H]2CC[C@@]3(C)[C@H](CC[C@@H]4[C@@H]3CC[C@]3(C)[C@@H](C5=CC(=O)OC5)CC[C@]43O)C2)O[C@@H](C)[C@@H]1O` [Neriifolin], in the test with cancer pathways, the “Pathway Activity” value is given as “invasion/metastasis”. For the same compound, the pIC50 is 8.52 in the test on MIA PaCa-2 cells (120 hours) and 8.22 with A549 cells (Homo sapiens, 120 hours). Besides, the “Antiproliferative activity” value in the test with cancer cells was “substantial antiproliferative activity”.

Turning to `COC(=O)C1=C(C)NC(C)=C(C(=O)OCCN(C)Cc2ccccc2)C1c1cccc([N+](=O)[O-])c1` (stereo not shown) [Nicardipine], the pIC50 was 4.69 in the test on MIA PaCa-2 cells (MIA PaCa-2, 120 h) and 4.66 in the test on A549 cells (Homo sapiens, A549, 120 h).

For `Cc1c(NC(C)C)c(=O)n(-c2ccccc2)n1C` [Ramifenazone], the “Pathway Activity” value with cancer pathways is recorded as “invasion/metastasis”. In addition, the “Antiproliferative activity” value in the test with cancer cells is “substantial antiproliferative activity”.

Consider `C[n+]1cc2c3c(ccc2c2ccc4cc5c(cc4c21)OCO5)OCO3` [Sanguinarine], for which the negative logarithm of the IC50 (pIC50) with MIA PaCa-2 cells (120 hours) is 5.71; with A549 cells (Homo sapiens, 120 hours), 5.65.

On to `CN[C@H]1CC[C@@H](c2ccc(Cl)c(Cl)c2)c2ccccc21` [Sertraline], for which the “Pathway Activity” value with cancer pathways was “apoptosis”. In addition, the “Antiproliferative activity” value in the test with cancer cells is “substantial antiproliferative activity”.

For `Cc1c(N(C)CS(=O)(=O)[O-])c(=O)n(-c2ccccc2)n1C.[Na+]` [dipyrone], the “Antiproliferative activity” value with cancer cells is “substantial antiproliferative activity”.

Take `COC(=O)[C@H]1[C@H]2C[C@@H]3c4[nH]c5cc(OC)ccc5c4CCN3C[C@H]2C[C@@H](OC(=O)c2cc(OC)c(OC)c(OC)c2)[C@@H]1OC` [reserpine, Reserpine]: the “Antiproliferative activity” value with cancer cells is reported as “substantial antiproliferative activity”.
